Source: patent publication US11708344B2, “Flavone derivatives for the treatment and prophylaxis of hepatitis B virus disease” (Hoffmann-La Roche Inc., priority 2018, dated 2023)

Tests used:
[1] = tested on: HBeAg (surrogate marker for cccDNA) in HepDES19 cells; assay: Engineered HepDES19 primary screen assay (HBeAg ELISA); format: cell-based, HBV; conditions: Hepatitis B virus, HepDES19, 120 h, read-out: IC50 (HBeAg level, HepDES19 primary screen assay), HepDES19 cells, 5 days compound incubation, HBeAg ELISA
Procedure, shortened: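 IC50 values come from 4-parameter logistic fits of HBeAg ELISA signal, the cccDNA surrogate, with CCK-8 run in parallel for viability. Compounds at half-log dilutions with 1% DMSO were applied for 5 days at 37 °C to HepDES19 cells previously cultured 8 days without Tet.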

[2] = tested on: HBsAg in HBV-infected PHH; assay: Cryopreserved primary human hepatocytes (PHH) HBV infection assay, extracellular HBsAg (CLIA); format: cell-based; conditions: Hepatitis B virus, Hepatocyte, 216 h, read-out: HBsAg IC50, Cryopreserved PHH infected with HBV, 9 days post-compound treatment, extracellular HBsAg
Experimental: This assay is used to confirm the anti-HBV effect of the compounds in HBV PHH infection assay. Cryopreserved PHH (BioreclamationIVT, Lot YJM) was thawed at 37° C. and gently transferred into pre-warmed InVitroGRO HT medium (BioreclamationIVT, Cat. S03317). The mixture was centrifuged at 70 relative centrifugal force (RCF) for 3 minutes at RT, and the supernatant was discarded. Pre-warmed InVitroGRO CP medium (BioreclamationIVT, Cat #S03316) was added to the cell pellet to gently re-suspend cells. The cells were seeded at the density of 5.8×10^4 cells per well to collagen I coated 96-well plate (Gibco, Cat. A1142803) with the InVitroGRO CP medium. All plates were incubated at 37° C. with 5% CO2 and 85% humidity.
At 20 hours after plating, the medium was changed to PHH culture medium (Dulbecco's Modified Eagle Medium (DMEM)/F12 (1:1) (Gibco, Cat. 11320-033), 10% fetal bovine semm (Gibco Cat. 10099141), 100 U/mL penicillin, 100 μg/mL streptomycin (Gibco, Cat. 151401-122), […] (Invitrogen Cat. PHG0311L), 20 ng/mL dexamethasone (Sigma, Cat. D4902) and 250 ng/mL human recombinant insulin (Gibco, Cat. 12585-014)). And the cells were incubated at 37° C. with 5% CO2 and 85% humidity for 4 hours. The medium was then changed to pre-warmed PHH culture medium containing 4% polyethylene glycol (PEG) MW8000 (Sigma, Cat. P1458-50 ML) and 1% DMSO (Sigma, Cat. D2650). 5.8×10^6 genomic equivalents of HBV were added into the medium.
At 24 hours post-infection, the cells were gently washed with PBS and refreshed with PHH culture medium supplemented with 1% DMSO, and 0.25 mg/mL Matrix gel (Corning, Cat. 356237) at 200 μL per well. All plates were immediately placed in at 37° C. CO2 incubator.
24 hours later, serial dilutions of compounds made with DMSO were further diluted with the same culture medium (PHH culture medium supplemented with 1% DMSO and 0.25 mg/mL Matrix gel as described above) before they were added to the cells to reach desired final compound concentrations and 1% DMSO concentration. The medium containing the compounds were refreshed every three days.
At 9 days post-compound treatment, extracellular HBsAg level were measured with Chemiluminescence Immuno Assay (CLIA) kit (Autobio, HBsAg Quantitative CLIA). Extracellular HBV DNA was extracted by MagNA Pure 96 system (Roche) and then determined by quantitative PCR with the following primers and probe: […]
HBsAg IC50 and HBV DNA IC50 values were derived from the dose-response curve using 4 parameter logistic curve fit method. The compounds of formula (I) have HBsAg IC50<20 μM, particularly <1 μM; and HBV DNA IC50<50 μM.

[3] = Human microsome stability assay; format: in vitro ADME; conditions: human liver microsomes, 1 μM test compound, 0.5 mg/mL microsomal protein, 37° C., pH 7.4, 0-30 minutes
Procedure, shortened: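 Parent compound remaining was measured by LC-MS/MS at 0, 3, 6, 9, 15 and 30 min, following ACN quench. Reactions held 1 μM compound and 0.5 mg/mL human liver microsomal protein in pH 7.4 phosphate buffer at 37 °C, started by NADPH regeneration (1 mM NADP, 1 mM MgCl2); controls lacked NADPH.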

| Compound | IC50 [1] [nM] | IC50 [2] [nM] | Clearance of Human microsome [3] [mL/min/kg] |
| --- | --- | --- | --- |
| Cc1cc(-c2cc(=O)c3cccc(Cl)c3o2)c(OCCCC(=O)O)cc1Br [Example A054, 4-[5-bromo-2-(8-chloro-4-oxo-chromen-2-yl)-4-methyl-phenoxy]butanoic acid] | 1470 | 4210 | 6.15 |
| COc1cc(OCCO[C@H]2C[C@@H](C(=O)O)C2)c(-c2cc(=O)c3cccc(Cl)c3o2)cc1OCC(F)(F)F [Example C085, cis-3-[2-[2-(8-chloro-4-oxo-chromen-2-yl)-5-methoxy-4-(2,2,2-trifluoroethoxy)phenoxy]ethoxy]cyclobutanecarboxylic acid] | 271 | 9020 | 6.15 |
| COc1cc(-c2cc(=O)c3cccc(Cl)c3o2)c(OCCC(=O)O)cc1Cl [Example A008, 3-[5-chloro-2-(8-chloro-4-oxo-chromen-2-yl)-4-methoxy-phenoxy]propanoic acid] | 2260 | 948 | 6.15 |
| COc1cc(OCCO[C@H]2C[C@@H](C(=O)O)C2)c(-c2cc(=O)c3cccc(Cl)c3o2)cc1OCC1CC1 [Example C082, cis-3-[2-[2-(8-chloro-4-oxo-chromen-2-yl)-4-(cyclopropylmethoxy)-5-methoxy-phenoxy]ethoxy]cyclobutanecarboxylic acid] | 3970 | 9520 | 6.15 |
| O=c1cc(-c2ccccc2OCCO[C@H]2C[C@H](C(=O)O)C2)oc2c(Cl)cccc12 [Example C025-B, Trans-3-[2-[2-(8-chloro-4-oxo-chromen-2-yl)phenoxy]ethoxy]cyclobutanecarboxylic acid] | 205 | 2020 | 6.15 |
| Cc1ccc(-c2cc(=O)c3cccc(Cl)c3o2)c(OCCO[C@H]2C[C@@H](C(=O)O)C2)c1 [Example C038-A, Cis-3-[2-[2-(8-chloro-4-oxo-chromen-2-yl)-5-methyl-phenoxy]ethoxy]cyclobutanecarboxylic acid] | 643 | 8610 | 6.15 |
| CCOc1cc(OCCO[C@H]2C[C@@H](C(=O)O)C2)c(-c2cc(=O)c3cccc(Cl)c3o2)cc1OC [Example C078, Cis-3-[2-[2-(8-chloro-4-oxo-chromen-2-yl)-5-ethoxy-4-methoxy-phenoxy]ethoxy]cyclobutanecarboxylic acid] | 15000 | 6320 | 6.15 |
| CCCOc1cc(OCCO[C@H]2C[C@@H](C(=O)O)C2)c(-c2cc(=O)c3cccc(Cl)c3o2)cc1OC [Example C077, Cis-3-[2-[2-(8-chloro-4-oxo-chromen-2-yl)-4-methoxy-5-propoxy-phenoxy]ethoxy]cyclobutanecarboxylic acid] | 3210 | 9370 | 6.15 |
| COc1cc(-c2cc(=O)c3cccc(Cl)c3o2)c(OCCCOCC(=O)O)cc1Br [Example C013, 2-[3-[5-bromo-2-(8-chloro-4-oxo-chromen-2-yl)-4-methoxy-phenoxy]propoxy]acetic acid] | 252 | 9320 | 6.15 |
| O=C(O)[C@@H]1C[C@H](Oc2cc(Br)ccc2-c2cc(=O)c3cccc(Cl)c3o2)CN1S(=O)(=O)c1ccccc1 [Example B082] | 1980 | 4800 | 6.15 |
| O=c1cc(-c2cc(F)ccc2OCCO[C@H]2C[C@@H](C(=O)O)C2)oc2c(Cl)cccc12 [Example C033-A, Cis-3-[2-[2-(8-chloro-4-oxo-chromen-2-yl)-4-fluoro-phenoxy]ethoxy]cyclobutanecarboxylic acid] | 1340 | 1970 | 6.15 |
| O=c1cc(-c2ccccc2OCCO[C@H]2C[C@@H](C(=O)O)C2)oc2c(Cl)cc(F)cc12 [Example C036-A, Cis-3-[2-[2-(8-chloro-6-fluoro-4-oxo-chromen-2-yl)phenoxy]ethoxy]cyclobutanecarboxylic acid] | 261 | 2420 | 6.15 |
| O=c1cc(-c2ccc(C3CC3)cc2O[C@H]2C[C@@H](C(=O)O)C2)oc2c(Cl)cccc12 [Example B035-A, cis-3-[2-(8-chloro-4-oxo-chromen-2-yl)-5-cyclopropyl-phenoxy]cyclobutanecarboxylic acid] | 160 | 1460 | 8.46 |
| O=C(O)CCOc1cc(Br)ccc1-c1cc(=O)c2cccc(Cl)c2o1 [Example A004, 3-[5-bromo-2-(8-chloro-4-oxo-chromen-2-yl)phenoxy]propanoic acid] | 374 | 6610 | 6.15 |
| CC(CC(=O)O)OC(=O)CC(C)Oc1cc(C(F)(F)F)ccc1-c1cc(=O)c2cccc(Cl)c2o1 (centres unmarked) [Example A040, 3-[3-[2-(8-chloro-4-oxo-chromen-2-yl)-5-(trifluoromethyl)phenoxy]butanoyloxy]butanoic acid] | 525 | 7940 | 6.15 |
| O=c1cc(-c2ccc(OC(F)(F)F)cc2O[C@H]2C[C@@H](C(=O)O)C2)oc2c(Cl)cccc12 [Example B015-A, Cis-3-[2-(8-chloro-4-oxo-chromen-2-yl)-5-(trifluoromethoxy)phenoxy]cyclobutanecarboxylic acid] | 3790 | 2570 | 6.15 |
| COc1cc(-c2cc(=O)c3cccc(Cl)c3o2)c(OCCO[C@H]2C[C@@H](C(=O)O)C2)cc1OC(F)F [Example C081, Cis-3-[2-[2-(8-chloro-4-oxo-chromen-2-yl)-5-(difluoromethoxy)-4-methoxy-phenoxy]ethoxy]cyclobutanecarboxylic acid] | 779 | 8770 | 6.15 |
| COc1cc(-c2cc(=O)c3cccc(Cl)c3o2)c(OCCC(=O)O)cc1Br [Example A007, 3-[5-bromo-2-(8-chloro-4-oxo-chromen-2-yl)-4-methoxy-phenoxy]propanoic acid] | 3150 | 2730 | 6.15 |
| COc1cc(O[C@H]2C[C@H](C(=O)NS(C)(=O)=O)C2)c(-c2cc(=O)c3cccc(Cl)c3o2)cc1Br [Example B055-B, Trans-3-[4-bromo-2-(8-chloro-4-oxo-chromen-2-yl)-5-methoxy-phenoxy]-N-methylsulfonyl-cyclobutanecarboxamide] | 3880 | 4000 | – |
| NC(=O)COCC(O)COc1cc(Br)ccc1-c1cc(=O)c2cccc(Cl)c2o1 (centres unmarked) [Example C114, 2-[3-[5-bromo-2-(8-chloro-4-oxo-chromen-2-yl)phenoxy]-2-hydroxy-propoxy]acetamide] | 1240 | 9190 | – |
| O=C(O)CCCOc1cc(Br)ccc1-c1cc(=O)c2cccc(Cl)c2o1 [Example A055, 4-[5-bromo-2-(8-chloro-4-oxo-chromen-2-yl)phenoxy]butanoic acid] | 95.5 | 2380 | – |
| O=C(COc1cc(C(F)(F)F)ccc1-c1cc(=O)c2cccc(Cl)c2o1)N1CCOCC1 [Example A092, 8-chloro-2-[2-(2-morpholino-2-oxo-ethoxy)-4-(trifluoromethyl)phenyl]chromen-4-one] | 1130 | 2800 | – |
